Assay results: US5332726A, “Antithrombotic peptides and pseudopeptides” (Rhone-Poulenc Rorer Pharmaceuticals Inc., priority 1992, dated 1994)
Where two headings read alike, the source gives them in different places. Non-standard residues stand in square brackets, D forms with d. Residues, ends and D or L forms follow the SMILES beside them. NMeV = CN[C@H](C(=O)O)C(C)C; Orn = NCCC[C@H](N)C(=O)O; Aun = NCCCCCCCCCCC(=O)O; Ava = NCCCCC(=O)O; Sar = CNCC(=O)O

Key:
[1] = target: thrombin-stimulated platelets (Homo sapiens, UniProt P05106+P08514); assay: Fibrinogen-Binding Assay (125I-fibrinogen binding to platelets)
[2] = target: fixed activated platelets (Homo sapiens, UniProt P05106+P08514); assay: Platelet Aggregation Assay (fibrinogen-mediated aggregation of fixed-activated platelets); assay type: cell-based
Method in brief: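 Activated platelets fixed with 0.50% paraformaldehyde for 30 min at room temperature. They were then pre-incubated 1 min with test compound before aggregation was triggered by human fibrinogen at 250 μg/ml final. Aggregation recorded on an aggregometer.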

platelet aggregation = details: cited from earlier work
[3] = 125I-fibrinogen 0.176 μmol/liter, thrombin-stimulated platelets; read-out: Inhibition of 125I-Fibrinogen Binding to Platelets IC50
[4] = fixed activated platelets, human fibrinogen 250 μg/ml; read-out: Inhibition of Fibrinogen Mediated Platelet Aggregation IC50
[5] = read-out: Inhibition of Fibrinogen Mediated Platelet Aggregation % inhibition at 25 μM
[6] = read-out: Inhibition of Fibrinogen Mediated Platelet Aggregation % inhibition at 100 μM
[7] = read-out: Inhibition of 125I-Fibrinogen Binding to Platelets: Inhibited <50% at 50 μg/ml

Chain of fixed activated platelets (P08514 32-1039): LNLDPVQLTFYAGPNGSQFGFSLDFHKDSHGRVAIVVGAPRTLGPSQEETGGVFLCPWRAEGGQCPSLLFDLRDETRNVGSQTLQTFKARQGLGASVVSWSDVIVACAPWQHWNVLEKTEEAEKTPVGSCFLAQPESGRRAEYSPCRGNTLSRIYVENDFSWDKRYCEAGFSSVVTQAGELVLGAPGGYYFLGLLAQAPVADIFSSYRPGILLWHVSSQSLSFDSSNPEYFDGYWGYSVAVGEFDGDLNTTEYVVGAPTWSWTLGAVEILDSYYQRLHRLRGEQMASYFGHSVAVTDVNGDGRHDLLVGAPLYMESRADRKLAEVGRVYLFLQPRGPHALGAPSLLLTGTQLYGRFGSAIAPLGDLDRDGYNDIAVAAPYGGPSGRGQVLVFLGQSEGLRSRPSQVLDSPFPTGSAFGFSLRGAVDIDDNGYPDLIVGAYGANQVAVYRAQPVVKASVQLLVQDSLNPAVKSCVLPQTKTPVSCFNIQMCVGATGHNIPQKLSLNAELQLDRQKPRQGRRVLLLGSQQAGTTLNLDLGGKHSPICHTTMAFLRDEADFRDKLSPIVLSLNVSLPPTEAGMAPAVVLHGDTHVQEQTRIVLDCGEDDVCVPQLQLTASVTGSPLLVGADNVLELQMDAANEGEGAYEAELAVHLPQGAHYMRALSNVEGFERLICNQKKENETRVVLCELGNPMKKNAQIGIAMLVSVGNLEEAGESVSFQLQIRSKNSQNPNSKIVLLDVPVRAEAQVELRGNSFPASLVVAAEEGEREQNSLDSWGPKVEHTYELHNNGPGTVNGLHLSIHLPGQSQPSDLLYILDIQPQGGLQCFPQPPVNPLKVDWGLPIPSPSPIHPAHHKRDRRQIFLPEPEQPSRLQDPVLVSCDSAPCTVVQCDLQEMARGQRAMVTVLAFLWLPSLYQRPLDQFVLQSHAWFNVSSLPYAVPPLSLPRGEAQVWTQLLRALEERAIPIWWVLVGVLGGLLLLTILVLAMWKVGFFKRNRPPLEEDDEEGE
Chain of fixed activated platelets (P05106 27-788): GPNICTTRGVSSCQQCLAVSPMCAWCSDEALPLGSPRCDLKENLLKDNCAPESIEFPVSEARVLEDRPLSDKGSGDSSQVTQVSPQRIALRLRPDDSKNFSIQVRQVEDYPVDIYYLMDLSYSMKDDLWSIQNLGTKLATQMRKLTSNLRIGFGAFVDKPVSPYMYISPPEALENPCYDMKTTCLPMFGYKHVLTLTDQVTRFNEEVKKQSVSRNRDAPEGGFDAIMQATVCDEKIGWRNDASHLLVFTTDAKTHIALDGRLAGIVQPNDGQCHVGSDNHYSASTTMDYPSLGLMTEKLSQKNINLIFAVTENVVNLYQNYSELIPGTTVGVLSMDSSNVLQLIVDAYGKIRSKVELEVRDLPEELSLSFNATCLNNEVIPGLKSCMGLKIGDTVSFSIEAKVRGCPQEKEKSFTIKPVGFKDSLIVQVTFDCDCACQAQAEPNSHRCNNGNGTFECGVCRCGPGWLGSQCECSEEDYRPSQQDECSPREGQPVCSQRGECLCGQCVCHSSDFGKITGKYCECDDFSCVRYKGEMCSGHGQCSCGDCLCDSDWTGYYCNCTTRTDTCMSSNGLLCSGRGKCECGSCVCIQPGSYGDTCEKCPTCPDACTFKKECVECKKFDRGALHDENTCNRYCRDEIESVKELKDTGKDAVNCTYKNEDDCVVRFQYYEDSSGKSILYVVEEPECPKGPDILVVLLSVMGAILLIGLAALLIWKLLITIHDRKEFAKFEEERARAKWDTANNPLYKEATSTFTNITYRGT
Chain of thrombin-stimulated platelets (P08514 32-1039): as the sequence (P08514 32-1039) above
Chain of thrombin-stimulated platelets (P05106 27-788): as the sequence (P05106 27-788) above

| IC50 [1, 3] [µM] | IC50 [2, 4] [µM] | inhibition at 25 µM [2, 5] [%] | inhibition at 100 µM [2, 6] [%] | inhibition at 50 µg/mL [1, 7] [%] | Compound | IC50 ([1]; read-out: Inhibition of 125I-Fibrinogen Binding to Platelets IC50; 125I-fibrinogen 0.176 μmol/liter, thrombin-stimulated platelets) [µM] | IC50 ([2]; read-out: Inhibition of Fibrinogen Mediated Platelet Aggregation IC50; fixed activated platelets, human fibrinogen 250 μg/ml) [µM] | inhibiting thrombin-induced platelet aggregation (platelet aggregation) |
| --- | --- | --- | --- | --- | --- | --- | --- | --- |
| 0.64 | 1.5 | 93 | – | – | N=C(N)NCCCCCCCCC(=O)N[C@@H](CC(=O)O)C(=O)NCCC(=O)N[C@@H](CCCNC(=N)N)C(=O)O [9-Guanidinononanoyl-L-aspartyl-β-alanyl-L-arginine] | – | – | – |
| 0.2 | 1.7 | 96 | – | – | CC(C)[C@H](NC(=O)[C@H](CC(=O)O)NC(=O)CCCCCCCCNC(=N)N)C(=O)O [9-guanidinononanoyl-L-aspartyl-L-valine] | – | – | – |
| 20 | > 25 | 45 | – | – | CC(C)[C@H](NC(=O)[C@H](CC(=O)O)NC(=O)CCCCCCCCCn1ccnc1)C(=O)O [10-(Imidazol-1-yl)decanoyl-L-aspartyl-L-valine] | – | – | – |
| 12 | 8.8 | 77 | – | – | CC(C)[C@H](NC(=O)[C@H](CC(=O)O)NC(=O)C=CCCCCCCCNC(=N)N)C(=O)O [10-Guanidinodec-2-enoyl-L-aspartyl-L-valine] | – | – | – |
| 2.5 | 10.3 | 77 | – | – | CC(C)[C@H](NC(=O)[C@H](CC(=O)O)NC(=O)CCCCCCCCCNC(=N)N)C(=O)O [10-Guanidinodecanoyl-L-aspartyl-L-valine] | – | – | – |
| 0.58 | 1.7 | 0.98 | – | – | CC(C)[C@H](NC(=O)[C@H](CC(=O)O)NC(=O)CCCCCCCCCCN)C(=O)O [11-Aminoundecanoyl-L-aspartyl-L-valine] (H-[Aun]-Asp-Val-OH) | – | – | – |
| 17 | – | 36 | – | – | CC(C)[C@H](NC(=O)[C@H](CC(=O)O)NC(=O)CCCCCCCCCCNC(=N)N)C(=O)O [11-guanidinoundecanoyl-L-aspartyl-L-valine] | – | – | – |
| > 200 | 100 | – | 49 | – | CC(C)[C@H](NC(=O)[C@H](CC(=O)O)NC(=O)[C@@H](N)CCCNC(=N)N)C(=O)O [L-arginyl-L-aspartyl-L-valine] (H-Arg-Asp-Val-OH) | – | – | – |
| – | > 100 | – | 17.5 | < 50 | CC(C)[C@H](NC(=O)[C@H](C)NC(=O)CNC(=O)[C@@H](N)CCCNC(=N)N)C(=O)O [L-arginylglycyl-L-alanyl-L-valine] (H-RGAV-OH) | – | – | – |
| 25 | 14 | – | 96 | – | N=C(N)NCCC[C@H](N)C(=O)NCC(=O)N[C@@H](CC(=O)O)C(=O)OCc1ccccc1 [L-arginylglycyl-L-aspartic acid α-benzyl ester] | – | – | – |
| 26.5 | 3.6 | – | 89 | – | CC(C)CNC(=O)[C@H](CC(=O)O)NC(=O)CNC(=O)[C@@H](N)CCCNC(=N)N [L-arginylglycyl-L-aspartyl-α-isobutylamide] | – | – | – |
| 68.5 | > 64 | – | 67 | – | CC(C)[C@H](NC(=O)[C@H](CC(=O)O)NC(=O)CNC(=O)CCCCN)C(=O)O [N-(5-Aminopentanoyl) glycyl-L-aspartyl-L-valine] (H-[Ava]GDV-OH) | – | – | – |
| 0.7 | 2.3 | – | 92 | – | CC(C)[C@H](NC(=O)[C@H](CC(=O)O)NC(=O)CNC(=O)CCCCNC(=N)N)C(=O)O [N-(5-guanidinopentanoyl)glycyl-L-aspartyl-L-valine] | – | – | – |
| 54 | > 25 | 13 | – | – | CC(C)C[C@@H](CCC(=O)O)NC(=O)[C@H](CC(=O)O)NC(=O)CCCCCCCCNC(=N)N [N-(9-guanidinononanoyl-L-aspartyl)-(R)-4-amino-4-isobutylbutyric acid] | – | – | – |

Second part, the compound before the results:

| Compound | IC50 [1, 3] [µM] | IC50 [2, 4] [µM] | inhibition at 25 µM [2, 5] [%] | inhibition at 100 µM [2, 6] [%] | inhibition at 50 µg/mL [1, 7] [%] | IC50 ([1]; read-out: Inhibition of 125I-Fibrinogen Binding to Platelets IC50; 125I-fibrinogen 0.176 μmol/liter, thrombin-stimulated platelets) [µM] | IC50 ([2]; read-out: Inhibition of Fibrinogen Mediated Platelet Aggregation IC50; fixed activated platelets, human fibrinogen 250 μg/ml) [µM] | inhibiting thrombin-induced platelet aggregation (platelet aggregation) |
| --- | --- | --- | --- | --- | --- | --- | --- | --- |
| CCC(CC)(NC(=O)[C@H](CC(=O)O)NC(=O)CCCCCCCCNC(=N)N)C(=O)N[C@@H](CCCNC(=N)N)C(=O)O [9-Guanidinononanoyl-L-aspartyl-α,α-diethyl-glycyl-L-arginine] | 40 | > 25 | 20 | – | – | – | – | – |
| N=C(N)NCCCCCCCCC(=O)N[C@@H](CC(=O)O)C(=O)NC(Cc1ccccc1)(Cc1ccccc1)C(=O)O [9-Guanidinononanoyl-L-aspartyl-α-benzylphenylalanine] | > 200 | > 25 | 10 | – | – | – | – | – |
| CC[C@H](C)[C@H](NC(=O)CCNC(=O)[C@H](CC(=O)O)NC(=O)CCCCCCCCNC(=N)N)C(=O)O [9-Guanidinononanoyl-L-aspartyl-β-alanyl-L-isoleucine] | 54 | 999 | 9 | – | – | – | – | – |
| CC(C)[C@H](NC(=O)[C@H](CC(=O)O)NC(=O)CCCCCCCCN)C(=O)O [9-aminononanoyl-L-aspartyl-L-valine] | 30 | 19.1 | 10.1 | – | – | – | – | – |
| CC(C)COC(=O)[C@H](CCCNC(=N)N)NC(=O)[C@H](CC(=O)O)NC(=O)CCCCCCCCNC(=N)N [9-guanidinononanoyl-L-aspartyl-L-arginine isobutyl ester] | 0.625 | 0.54 | 97 | – | – | – | – | – |
| CC(C)C[C@H](NC(=O)[C@H](CC(=O)O)NC(=O)CCCCCCCCNC(=N)N)C(=O)O [9-guanidinononanoyl-L-aspartyl-L-leucine] | 0.4 | 0.59 | 95 | – | – | – | – | – |
| CC(C)[C@H](NC(=O)[C@H](CC(=O)O)NC(=O)CCCCCCCCCCCNC(=N)N)C(=O)O [12-Guanidinododecanoyl-L-aspartyl-L-valine] | 7 | – | 36 | – | – | – | – | – |
| CC(C)[C@H](NC(=O)[C@H](CC(=O)O)NC(=O)CNC(=O)[C@@H](N)CCCCN)C(=O)O [L-Lysylglycyl-L-aspartyl-L-valine] (H-KGDV-OH) | 60 | > 25 | 8 | – | – | – | – | – |
| CC(C)[C@H](NC(=O)CNC(=O)CNC(=O)[C@@H](N)CCCNC(=N)N)C(=O)O [L-arginyl glycyl glycyl-L-valine] (H-RGGV-OH) | > 200 | > 100 | – | 10 | – | – | – | – |
| CC(C)[C@@H](C(=O)O)N(C)C(=O)[C@H](CC(=O)O)NC(=O)CNC(=O)[C@@H](N)CCCNC(=N)N [L-arginylglycyl-L-aspartyl-L-(N-methyl)-valine] (H-RGD[NMeV]-OH) | – | 160 | – | 30 | < 50 | – | – | – |
| CC(C)[C@H](NC(=O)[C@H](CC(=O)O)NC(=O)CN(C)C(=O)[C@@H](N)CCCNC(=N)N)C(=O)O [L-arginylsarcosyl-L-aspartyl-L-valine] (H-R[Sar]DV-OH) | 14 | 14 | – | 92 | – | – | – | – |
| CC(C)[C@H](NC(=O)[C@H](CC(=O)O)NC(=O)CNC(=O)[C@@H](N)CCCN)C(=O)O [L-ornithylglycyl-L-aspartyl-L-valine] (H-[Orn]GDV-OH) | – | 15 | – | 80 | < 50 | – | – | – |
| N=C(N)NCCCCC(=O)NCC(=O)N[C@@H](CC(=O)O)C(=O)NCCc1ccccc1 [N-(5-guanidinopentanoyl)glycyl-L-aspartylphenethylamide] | 20 | 2.1 | – | 86 | – | – | – | – |
| CC(C)[C@H](NC(=O)[C@H](CC(=O)O)NC(=O)Cn1nnnc1CCCCCNC(=N)N)C(=O)O [[5-(5'-Guanidinopentyl)Tetrazol-1-yl]-Acetyl-L-Aspartyl-L-Valine] | – | – | 40 | – | – | 2.2 | > 25 | – |
| arg-gly-asp-ser | – | – | – | – | – | – | – | capable of inhibiting thrombin-induced platelet aggregation |
| gly-arg-gly-asp-ser | – | – | – | – | – | – | – | capable of inhibiting thrombin-induced platelet aggregation |
